Where two headings read alike, the source gives them in different places.
What was measured:
SOD1 G93A mice [1] = assay: Ongoing IP injection study of DFMO in SOD1 G93A mice; format: in vivo, mouse; conditions: 3200 mg/kg
Source text: Studies are currently underway to analyze polyamines in male vs. female mSOD1 mice and wild-type mice. While positive effects are seen in male mice, the effect is less reliable at current doses. Differences in polyamine synthesis and regulation exist between the sexes and may account for the different observed effects. […] Higher plasma concentration of DFMO can be achieved by systemic delivery as opposed to oral delivery.

SOD1 G93A mice [2] = assay: Discontinuous dosing of DFMO in SOD-1 (G93A) mouse model of ALS: survival and neurological score; format: in vivo
Source text: (§1) Survival in the mouse is copy dependent.
(§2) Controls animals were given water as vehicle.
Results are shown in FIGS. 2 and 3 and described below.

SOD1 G93A mice [3] = assay: Continuous dosing of DFMO in SOD-1 (G93A) mouse model of ALS: survival and neurological score; format: in vivo
Protocol: as §1, §2
During this study, DFMO was delivered chronically at a dose of 3200 mg/Kg/day in drinking water […] without any drug holiday until death according to the methods described in Example 1. Results are shown in FIGS. 4–9 and described below.

SOD1 G93A mice [4] = assay: DENSPM in SOD-1 (G93A) mouse model of ALS: survival and neurological score; format: in vivo; conditions: female mice
Source text: as §1
Results are shown in FIGS. 12 and 13 and described below.

[5] = system: cellular concentrations of putrescine, spermidine and spermine; conditions: cited from earlier work
[6] = system: patients with advanced non-small cell lung cancer; conditions: Phase I; cited from earlier work
SOD1 G93A mice [7] = system: SOD1 G93A mice
Source text: (vi) Neurological Scoring: Neurological score of each limb was monitored and recorded according to a defined 4-point scale defined below: […]

[8] = 24 mg/kg/day IP twice daily till death, FIG. 12

NCCCC(N)(C(=O)O)C(F)F (racemic) [DFMO, 2-(Difuoromethyl)-DL-ornithine]
trend in male mice (SOD1 G93A mice [1]): positive male trend | onset of disease (SOD1 G93A mice [2]; 3200 mg/Kg/day in drinking water, 21 days on, 7 day drug holiday): delays the onset of disease | survival (SOD1 G93A mice [2]; 3200 mg/Kg/day in drinking water, 21 days on, 7 day drug holiday, FIG. 2): extends the survival | neurological score analysis, effect (SOD1 G93A mice [2]; combined male and female results, discontinuous delivery): No effect | neurological score analysis, effect (SOD1 G93A mice [2]; female mice, during drug delivery period, discontinuous delivery, FIG. 3): protective | deaths of animals in the treatment group that occurred during the drug holiday or a few days immediately succeeding the holiday (SOD1 G93A mice [2]; female mice, 3200 mg/Kg/day in drinking water, 21 days on, 7 day drug holiday, FIG. 2): 70% | total female effect (SOD1 G93A mice [2]; female mice, discontinuous delivery, FIG. 3): 3.5% | neurological score analysis, effect (SOD1 G93A mice [2]; male mice, discontinuous delivery): No effect | onset of disease (SOD1 G93A mice [3]; 3200 mg/Kg/day in drinking water, no drug holiday): delays the onset of disease | life span / survival (SOD1 G93A mice [3]; 3200 mg/Kg/day in drinking water, no drug holiday, FIGS. 4, 6 and 8): extended the life span | neurological score analysis, effect (SOD1 G93A mice [3]; combined male and female, continuous delivery, FIG. 5): protective | effect (SOD1 G93A mice [3]; female mice, continuous delivery): 11.48% | neurological score analysis, effect (SOD1 G93A mice [3]; female mice, continuous delivery, FIG. 9): protective | total combined effect (SOD1 G93A mice [3]; male and female combined, continuous delivery, Cox proportional hazard, litter effect as frailty term, p=0.02): 9.69% | effect (SOD1 G93A mice [3]; male mice, continuous delivery): 8.21% | neurological score analysis, effect (SOD1 G93A mice [3]; male mice, continuous delivery, FIG. 7): protective

CCNCCCNCCCNCCCNCC [DENSPM, N(1),N(11)-diethylnorspermine]
onset of disease (SOD1 G93A mice [4]; [8]): delays the onset of disease | survival (SOD1 G93A mice [4]; [8]): extends the survival | neurological score analysis, effect (SOD1 G93A mice [4]; 24 mg/kg/day IP twice daily, FIG. 13): protective | cellular concentrations of putrescine, spermidine and spermine [5]: reduce | toxicity in patients [6]: minimal toxicity

NC(=O)NO [hydroxyurea]
onset of ALS disease (SOD1 G93A mice [7]; 250 mg/Kg/day IP once daily, day 50 to day 110): delays the onset of ALS disease | life span / survival (SOD1 G93A mice [7]; female mice, 250 mg/Kg/day IP once daily, day 50 to day 110, FIG. 10): extended the life span | neurological score analysis, effect (SOD1 G93A mice [7]; female mice, 250 mg/Kg/day IP, FIG. 11): protective
